# What was measured:
# Type in all cases: in vivo
# Rhipicephalus sanguineus = Rhipicephalus sanguineus in-vitro contact test, adult brown dog ticks; conditions: 5 μg/cm^2 (=500 g/ha), after 48 hours, read-out: efficacy (ticks dead or moribund)
# Description: Rhipicephalus Sanguineus—In-Vitro Contact Tests with Adult Brown Doe Ticks
# 9 mg compound is solved in 1 ml acetone and diluted with acetone to the desired concentration. 250 μl of the test solution is filled in 25 ml glass test tubes and homogeneously distributed on the inner walls by rotation and tilting on a shaking device (2 h at 30 rpm). With a compound concentration of 900 ppm, an inner surface of 44.7 cm^2 and a homogeneous distribution, a dose of 5 μg/cm^2 is achieved.
# After the solvent has evaporated, each test tube is filled with 5-10 adult brown dog ticks (Rhipicephalus sanguineus), closed with a perforated lid and incubated in a lying position at room temperature and relative humidity. After 48 hours efficacy is determined. The ticks are patted on the ground of the tubes and are incubated on a heating plate at 45-50° C. for at most 5 minutes. Immotile or uncoordinated moving ticks, which are not able to escape the heat by climbing upwards, are marked as dead or moribund.
# An efficacy of 100% means all ticks are dead or moribund; 0% means no ticks are dead or moribund.
# Diabrotica balteata = Diabrotica balteata spray test; conditions: Diabrotica balteata, in Triticum aestivum, 168 h, after 7 days, larvae on wheat seeds, read-out: efficacy (seedlings grown up); for pest or weed control at 80 µg/disc, 250 g/ha: 80 μg/well (=250 g/ha); for pest or weed control at 160 µg/disc, 500 g/ha: 160 μg/well (=500 g/ha)
# How it was run: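 Germinated wheat seeds (5 per well, 1 day on agar) sprayed with compound diluted in water containing 1000 ppm emulsifier, then infested with 10–20 D. balteata larvae. Efficacy scored after 7 days: 100% = seedlings like untreated uninfested control, 0% = no seedlings grown.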
# Myzus persicae = Myzus persicae spray test; conditions: foliar, 120 h, after 5 days, Chinese cabbage leaf disks
# How it was run: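 Chinese cabbage leaf disks infested with all aphid instars were sprayed with compound diluted in water containing emulsifier (1000 ppm). Mortality (%) was scored after 5 days, 100% meaning all aphids killed.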
# Spodoptera frugiperda = Spodoptera frugiperda spray test; conditions: 168 h, after 7 days, larvae on maize leaf sections
# How it was run: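 Maize leaf sections were sprayed with compound formulated in solvent and diluted in water containing 1000 ppm emulsifier, then infested with fall armyworm larvae after drying. Percent mortality was scored after 7 days (100% = all caterpillars dead, 0% = none).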
# [1] = test system: cattle ticks (Boophilus microplus) strane Parhurst, SP-resistant; assay: Boophilus microplus dip test; conditions: Rhipicephalus microplus, 168 h, engorged adult female cattle ticks, egg deposition after 7 days, read-out: efficacy (infertile eggs)
# Description: Boophilus microplus—Dip Test
# Test animal: cattle ticks (Boophilus microplus) strane Parhurst, SP-resistant
# Solvent: dimethyl sulfoxide
# To produce a suitable preparation of active compound, 10 mg of active compound are dissolved in 0.5 ml solvent, and the concentrate is diluted with water to the desired concentration.
# This compound solution is pipetted into tubes. 8-10 engorged, adult, female cattle ticks (Boophilus microplus) are placed in perforated tubes. These tubes are immersed in the aqueous compound solution until the ticks are completely moistened. After the liquid has drained off, the ticks are transferred to a filter paper in a plastic tray and stored in a climate chamber.
# After 7 days egg deposition of fertile eggs is monitored. Eggs where fertility is not visible are stored in a climate chamber till hatching after about 42 days. An efficacy of 100% means all eggs are infertile; 0% means all eggs are fertile.
# Nilaparvata lugens = Nilaparvata lugens spray test; conditions: 336 h, after 14 days, rice plants
# Description: Nilaparvata lugens—Spray Test
# To produce a suitable preparation of active compound, 1 part by weight of active compound is mixed with the stated amount of solvents and is diluted with water, containing an emulsifier concentration of 1000 ppm, to the desired concentration. Further test concentrations are prepared by dilution with emulsifier containing water.
# Rice plants (Oryza sativa) are sprayed with a preparation of the active ingredient of the desired concentration and the plants are infested with the brown planthopper (Nilaparvata lugens).
# After 14 days mortality in % is determined. 100% means all planthoppers have been killed and 0% means none of the planthoppers have been killed.
# Meloidogyne incognita = Meloidogyne incognita test; conditions: 20 ppm; after 14 days; salad seedlings
# Description: Meloidogyne incognita—Test Solvent: 125.0 parts by weight of acetone To produce a suitable preparation of active compound, 1 part by weight of active compound is mixed with the stated amount of solvent, and the concentrate is diluted with water to the desired concentration. Vessels are filled with sand, a solution of the active ingredient, a suspension containing eggs and larvae of the southern root-knot nematode (Meloidogyne incognita) and salad seeds. The salad seeds germinate and the seedlings grow. Galls develop in the roots. After 14 days the nematicidal activity is determined on the basis of the percentage of gall formation. 100% means no galls were found and 0% means the number of galls found on the roots of the treated plants was equal to that in untreated control plants.
SMILES,pest or weed control at 5 µg/cm2 (Rhipicephalus sanguineus) [%],"pest or weed control at 80 µg/disc, 250 g/ha (Diabrotica balteata) [%]","pest or weed control at 160 µg/disc, 500 g/ha (Diabrotica balteata) [%]",mortality at 100 g/ha (Myzus persicae) [%],mortality at 500 g/ha (Myzus persicae) [%],mortality at 100 g/ha (Spodoptera frugiperda) [%],mortality at 500 g/ha (Spodoptera frugiperda) [%],pest or weed control at 100 ppm [1] [%],mortality at 500 g/ha (Nilaparvata lugens) [%],nematicidal activity (gall formation) (Meloidogyne incognita) [%]
Cc1nc([C@H](C)NC(=O)c2cc(C(F)(F)F)cc(C(F)(F)F)c2)n(-c2ccc(C#N)cn2)n1 [Example I-056],100,100,100,100,90,100,100,,,
C[C@H](NC(=O)c1cc(F)cc(C(F)(F)F)c1)c1ncnn1-c1ccc(C#N)cn1 [Example I-019],,100,100,,,100,100,100,,
"C[C@H](NC(=O)c1cc(Cl)cc(OC(F)(F)F)c1)c1ncnn1-c1ccc(C#N)cn1 [Example I-041, 3-chloro-N-{(1S)-1-[1-(5-cyanopyridin-2-yl)-1H-1,2,4-triazol-5-yl]ethyl}-5-(trifluoromethoxy)benzamide]",,100,100,,,100,100,100,90,
C[C@H](NC(=O)c1cc(F)cc(C#N)c1)c1ncnn1-c1ccc(C#N)cn1 [Example I-018],,100,100,,,100,100,,,
Cc1nc([C@H](C)NC(=O)c2cc(Cl)cc(C(F)(F)F)c2)n(-c2ccc(C#N)cn2)n1 [Example I-049],100,80,100,100,90,100,100,100,100,
C[C@H](NC(=O)c1cc(Cl)cc(C(F)(F)F)c1)c1ncnn1-c1ccc(C#N)cn1 [Example I-009],100,100,,,90,100,100,100,,
C[C@H](NC(=O)c1cc(Cl)cc(SC(F)(F)F)c1)c1ncnn1-c1ccc(C#N)cn1 [Example I-042],,100,100,,,100,100,80,,
C[C@H](NC(=O)c1cc(Cl)cc(C(F)(F)F)c1)c1ncnn1-c1ncc(Cl)cc1F [Example I-013],,100,100,90,100,100,100,100,,90
C[C@H](NC(=O)c1cc(C(F)(F)F)cc(C(F)(F)F)c1)c1ncnn1-c1ccc(C#N)cn1 [Example I-052],100,100,100,,90,100,100,,,
"C[C@H](NC(=O)c1cc(Cl)cc(C(F)(F)F)c1)c1ncnn1-c1ccc(NC(=O)C2CC2)cn1 [Example I-034, 3-chloro-N-[(1S)-1-(1-{5-[(cyclopropylcarbonyl)amino]pyridin-2-yl}-1H-1,2,4-triazol-5-yl)ethyl]-5-(trifluoromethyl)benzamide]",,100,100,100,100,100,100,,100,
C[C@H](NC(=O)c1cc(Cl)cc(C(F)(F)F)c1)c1ncnn1-c1ccc([N+](=O)[O-])cn1 [Example I-028],,100,100,,,100,100,100,,
C[C@H](NC(=O)c1cc(Cl)cc(Cl)c1)c1ncnn1-c1ccc(C#N)cn1 [Example I-047],,100,100,,,100,100,100,,
C[C@H](NC(=O)c1cc(Cl)cc(C(F)(F)F)c1)c1ncnn1-c1cc(C#N)ccn1 [Example I-015],100,100,,100,100,100,100,,,
C[C@H](NC(=O)c1cc(Cl)cc(Br)c1)c1ncnn1-c1ccc(C#N)cn1 [Example I-046],,100,100,,,100,100,100,,
C[C@H](NC(=O)c1cc(Cl)cc(S(F)(F)(F)(F)F)c1)c1ncnn1-c1ccc(C#N)cn1 [Example I-048],,100,100,,,100,100,,100,
